Assay results published in the supplement of paper PMC10307832.

Assays:
Assay in all cases: relative viability (nuclei count vs DMSO), 5 days (fraction); higher = more cells survive
NCI-H1793 = tested on: NCI-H1793
How it was run: (§1)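 Nuclei were stained with Hoechst during a one-step fixation (final 0.05% Triton X-100, 1% formaldehyde, 1 ug/ml Hoechst) carried out 5 days after dosing, then counted on 4× images. The cells, lung cancer lines in 1536-well plates, had been dosed by pin tool the day after seeding with one drug alone or a fixed anchor-drug dose plus five library-drug doses (not always all listed) in √10 steps. Relative viability is the nuclei count in treated wells divided by that in vehicle wells, and each value is the median of duplicate plates.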

HCC-827 = tested on: HCC-827
How it was run: as §1

NCI-H2405 = tested on: NCI-H2405
How it was run: as §1

NCI-H727 = tested on: NCI-H727
How it was run: as §1

NCI-H3122 = tested on: NCI-H3122
How it was run: as §1

201T = tested on: 201T
How it was run: as §1

NCI-H1944 = tested on: NCI-H1944
How it was run: as §1

SK-LU-1 = tested on: SK-LU-1
How it was run: as §1

RERF-LC-KJ = tested on: RERF-LC-KJ
How it was run: as §1

NCI-H2228 = tested on: NCI-H2228
How it was run: as §1

CAL-12T = tested on: CAL-12T
How it was run: as §1

LCLC-103H = tested on: LCLC-103H
How it was run: as §1

NCI-H647 = tested on: NCI-H647
How it was run: as §1

NCI-H322M = tested on: NCI-H322M
How it was run: as §1

BEN = tested on: BEN
How it was run: as §1

LCLC-97TM1 = tested on: LCLC-97TM1
How it was run: as §1

LXF-289 = tested on: LXF-289
How it was run: as §1

NCI-H1395 = tested on: NCI-H1395
How it was run: as §1

NCI-H1792 = tested on: NCI-H1792
How it was run: as §1

NCI-H1650 = tested on: NCI-H1650
How it was run: as §1

NCI-H2087 = tested on: NCI-H2087
How it was run: as §1

NCI-H1437 = tested on: NCI-H1437
How it was run: as §1

## O=c1cc(-c2cccc3c2Sc2ccccc2S3)oc(N2CCOCC2)c1 + CC(=O)c1c(C)c2cnc(Nc3ccc(N4CCNCC4)cn3)nc2n(C2CCCC2)c1=O [Palbociclib] (partner 0.5 µM)
NCI-H1793; first compound 0.08 µM
  relative viability: 0.21
NCI-H1793; first compound 0.253 µM
  relative viability: 0.308
NCI-H1793; first compound 0.8 µM
  relative viability: 0.311
NCI-H1793; first compound 2.53 µM
  relative viability: 0.257
NCI-H1793; first compound 8 µM
  relative viability: 0.273
HCC-827; first compound 0.08 µM
  relative viability: 0.479
HCC-827; first compound 0.253 µM
  relative viability: 0.493
HCC-827; first compound 0.8 µM
  relative viability: 0.444
HCC-827; first compound 2.53 µM
  relative viability: 0.37
HCC-827; first compound 8 µM
  relative viability: 0.442
NCI-H2405; first compound 0.08 µM
  relative viability: 0.523
NCI-H2405; first compound 0.253 µM
  relative viability: 0.534
NCI-H2405; first compound 0.8 µM
  relative viability: 0.55
NCI-H2405; first compound 2.53 µM
  relative viability: 0.491
NCI-H2405; first compound 8 µM
  relative viability: 0.503
NCI-H727; first compound 0.08 µM
  relative viability: 0.613
NCI-H727; first compound 0.253 µM
  relative viability: 0.813
NCI-H727; first compound 2.53 µM
  relative viability: 0.512
NCI-H727; first compound 8 µM
  relative viability: 0.613
NCI-H3122; first compound 0.08 µM
  relative viability: 0.169
NCI-H3122; first compound 0.253 µM
  relative viability: 0.2
NCI-H3122; first compound 0.8 µM
  relative viability: 0.208
NCI-H3122; first compound 2.53 µM
  relative viability: 0.188
NCI-H3122; first compound 8 µM
  relative viability: 0.192
201T; first compound 0.08 µM
  relative viability: 0.348
201T; first compound 0.253 µM
  relative viability: 0.362
201T; first compound 0.8 µM
  relative viability: 0.373
201T; first compound 2.53 µM
  relative viability: 0.348
201T; first compound 8 µM
  relative viability: 0.359
NCI-H1944; first compound 0.08 µM
  relative viability: 0.313
NCI-H1944; first compound 0.253 µM
  relative viability: 0.329
NCI-H1944; first compound 0.8 µM
  relative viability: 0.302
NCI-H1944; first compound 2.53 µM
  relative viability: 0.335
NCI-H1944; first compound 8 µM
  relative viability: 0.318
SK-LU-1; first compound 0.08 µM
  relative viability: 0.397
SK-LU-1; first compound 0.253 µM
  relative viability: 0.354
SK-LU-1; first compound 0.8 µM
  relative viability: 0.418
SK-LU-1; first compound 2.53 µM
  relative viability: 0.327
SK-LU-1; first compound 8 µM
  relative viability: 0.368
RERF-LC-KJ; first compound 0.08 µM
  relative viability: 1.11
RERF-LC-KJ; first compound 0.253 µM
  relative viability: 1.32
RERF-LC-KJ; first compound 0.8 µM
  relative viability: 1.08
RERF-LC-KJ; first compound 2.53 µM
  relative viability: 1.04
RERF-LC-KJ; first compound 8 µM
  relative viability: 0.971
NCI-H2228; first compound 0.08 µM
  relative viability: 0.766
NCI-H2228; first compound 0.253 µM
  relative viability: 0.766
NCI-H2228; first compound 0.8 µM
  relative viability: 0.901
NCI-H2228; first compound 2.53 µM
  relative viability: 0.608
NCI-H2228; first compound 8 µM
  relative viability: 0.758
CAL-12T; first compound 0.08 µM
  relative viability: 0.369
CAL-12T; first compound 0.253 µM
  relative viability: 0.57
CAL-12T; first compound 0.8 µM
  relative viability: 0.498
CAL-12T; first compound 2.53 µM
  relative viability: 0.404
CAL-12T; first compound 8 µM
  relative viability: 0.292
LCLC-103H; first compound 0.08 µM
  relative viability: 0.461
LCLC-103H; first compound 0.253 µM
  relative viability: 0.51
LCLC-103H; first compound 0.8 µM
  relative viability: 0.477
LCLC-103H; first compound 2.53 µM
  relative viability: 0.46
LCLC-103H; first compound 8 µM
  relative viability: 0.448
NCI-H647; first compound 0.08 µM
  relative viability: 0.438
NCI-H647; first compound 0.253 µM
  relative viability: 0.487
NCI-H647; first compound 0.8 µM
  relative viability: 0.357
NCI-H647; first compound 2.53 µM
  relative viability: 0.296
NCI-H647; first compound 8 µM
  relative viability: 0.391
NCI-H322M; first compound 0.08 µM
  relative viability: 0.453
NCI-H322M; first compound 0.253 µM
  relative viability: 0.474
NCI-H322M; first compound 0.8 µM
  relative viability: 0.502
NCI-H322M; first compound 2.53 µM
  relative viability: 0.449
NCI-H322M; first compound 8 µM
  relative viability: 0.475
BEN; first compound 0.08 µM
  relative viability: 0.464
BEN; first compound 0.253 µM
  relative viability: 0.447
BEN; first compound 0.8 µM
  relative viability: 0.477
BEN; first compound 2.53 µM
  relative viability: 0.452
BEN; first compound 8 µM
  relative viability: 0.499
LCLC-97TM1; first compound 0.08 µM
  relative viability: 0.247
LCLC-97TM1; first compound 0.253 µM
  relative viability: 0.26
LCLC-97TM1; first compound 0.8 µM
  relative viability: 0.245
LCLC-97TM1; first compound 2.53 µM
  relative viability: 0.228
LCLC-97TM1; first compound 8 µM
  relative viability: 0.241
LXF-289; first compound 0.08 µM
  relative viability: 0.61
LXF-289; first compound 0.253 µM
  relative viability: 0.603
LXF-289; first compound 0.8 µM
  relative viability: 0.609
LXF-289; first compound 2.53 µM
  relative viability: 0.619
LXF-289; first compound 8 µM
  relative viability: 0.642
NCI-H1395; first compound 0.08 µM
  relative viability: 0.62
NCI-H1395; first compound 0.253 µM
  relative viability: 0.539
NCI-H1395; first compound 0.8 µM
  relative viability: 0.568
NCI-H1395; first compound 2.53 µM
  relative viability: 0.574
NCI-H1395; first compound 8 µM
  relative viability: 0.638
NCI-H1792; first compound 0.08 µM
  relative viability: 0.673
NCI-H1792; first compound 0.253 µM
  relative viability: 0.847
NCI-H1792; first compound 0.8 µM
  relative viability: 0.635
NCI-H1792; first compound 2.53 µM
  relative viability: 0.654
NCI-H1792; first compound 8 µM
  relative viability: 0.688
NCI-H1650; first compound 0.08 µM
  relative viability: 0.377
NCI-H1650; first compound 0.253 µM
  relative viability: 0.38
NCI-H1650; first compound 0.8 µM
  relative viability: 0.284
NCI-H1650; first compound 2.53 µM
  relative viability: 0.311
NCI-H1650; first compound 8 µM
  relative viability: 0.353
NCI-H2087; first compound 0.08 µM
  relative viability: 0.23
NCI-H2087; first compound 0.253 µM
  relative viability: 0.234
NCI-H2087; first compound 0.8 µM
  relative viability: 0.203
NCI-H2087; first compound 2.53 µM
  relative viability: 0.222
NCI-H2087; first compound 8 µM
  relative viability: 0.201
NCI-H1437; first compound 0.08 µM
  relative viability: 0.302
NCI-H1437; first compound 0.253 µM
  relative viability: 0.344
NCI-H1437; first compound 0.8 µM
  relative viability: 0.276
NCI-H1437; first compound 2.53 µM
  relative viability: 0.25
NCI-H1437; first compound 8 µM
  relative viability: 0.285
